# Columns and labels:
# Staphylococcus aureus [1] = test: Antibacterial activity against methicillin-resistant Staphylococcus aureus assessed as bacterial growth inhibition; format: functional
# HCT-116 = test: Anticancer activity against human HCT-116 cells assessed as cell growth inhibition; format: functional, cell-based
# [2] = Anticancer activity against human QGP-1 cells assessed as cell growth inhibition; format: functional, cell-based
# A-375 = test: Anticancer activity against human A-375 cells assessed as cell growth inhibition measured after 24 hrs by MTT assay; format: functional, cell-based; conditions: A-375, 24 h
# Caco-2 = test: Anticancer activity against human Caco-2 cells assessed as cell growth inhibition measured after 72 hrs by MTT assay; format: functional, cell-based; conditions: Caco-2, 72 h
# Plasmodium berghei [3] = test: Antimalarial activity against Plasmodium berghei assessed as reduction in parasite growth; format: functional, organism-based
# Streptococcus iniae [4] = test: Potency index, ratio of oxytetracycline MIC to test compound MIC for antibacterial activity against Streptococcus iniae FP 5228; format: functional
# Streptococcus iniae [5] = test: Antibacterial activity against Streptococcus iniae FP 5228 assessed as bacterial growth inhibition; format: functional
# Staphylococcus aureus [6] = test: Antibacterial activity against Staphylococcus aureus ATCC 29213 assessed as bacterial growth inhibition; format: functional
# Bacillus thuringiensis = test: Antibacterial activity against Bacillus thuringiensis SCSIO BT01 assessed as bacterial growth inhibition; format: functional
# Bacillus subtilis [7] = test: Antibacterial activity against Bacillus subtilis SCSIO BS01 assessed as bacterial growth inhibition; format: functional
# Escherichia coli = test: Antibacterial activity against Escherichia coli ATCC 25922 assessed as bacterial growth inhibition; format: functional
# [8] = Anticancer activity against human Leucocyte assessed as cell break at 2 x 10^-9M measured after 12 hrs; format: functional; conditions: dose 2 10^-9M
# HGC-27 = test: Anticancer activity against human HGC-27 cells assessed as cell growth inhibition measured after 24 hrs by CCK-8 assay; format: functional, cell-based; conditions: HGC-27, 24 h
# Bacillus subtilis [9] = test: Antibacterial activity against Bacillus subtilis ATCC 6633 assessed as bacterial growth inhibition; format: functional, organism-based
# Staphylococcus aureus [10] = test: Antibacterial activity against Staphylococcus aureus ATCC 25923 assessed as bacterial growth inhibition; format: functional, organism-based
# Plasmodium falciparum = test: Antimalarial activity against Plasmodium falciparum NF 54 clone A1A9 assessed as reduction in parasite growth measured after 24 hrs by 3[H]-hypoxanthine incorporation assay; format: functional, organism-based; conditions: NF 54 clone A1A9, 24 h
# Plasmodium berghei [11] = test: Antimalarial activity against Plasmodium berghei ANKA assessed as reduction in parasite growth measured after 24 hrs by 3[H]-hypoxanthine incorporation assay; format: functional, organism-based
structure (smiles),measurement,setting,value
O=C(c1ccccc1O)c1[nH]c(Cl)c(Cl)c1-n1c(C(=O)c2ccccc2O)cc(Cl)c1Cl,MIC90,Staphylococcus aureus [1],0.61 µM
same,IC50,HCT-116,8.8 µM
COC(=O)c1cc(-c2ccccc2)n(-n2c(-c3ccc4c(c3)OCO4)cc(C(=O)OC)c2C)c1C,IC50,[2],18.7 µg/mL
COc1ccc2ccc(O)c(-c3c(Br)c(C4CC4)nn3P(=O)(c3ccccc3)c3ccccc3)c2c1,IC50,A-375,2.57 µM
O=C1N[C@@H]2[C@H]3NC(=O)[C@@H]4Cc5cc6ccccc6n5-n5cc(c6ccccc65)C[C@@H]1N[C@H]2[C@@H]3N4,IC50,Caco-2,76 µM
COc1cc(C)cc2c(-c3c(O)cc(O)c4c3C[C@@H](C)N[C@@H]4C)ccc(O)c12 [KORUPENSAMINE A],IC50,Plasmodium berghei [3],0.56 µg/mL
COC(=O)C[C@@H]1Cc2cc3c(-c4c(OC)cc(O)c5c(O)c6c(cc45)C[C@@H](CC(=O)OC)OC6=O)c(OC)cc(O)c3c(O)c2C(=O)O1,Ratio,Streptococcus iniae [4],100
same,MIC,Streptococcus iniae [5],0.31 µg/mL
C[C@@]1(C(=O)O)[C@@H](O)CC[C@]2(C)c3cc4c5ccccc5n(-n5c6ccccc6c6cc7c(cc65)CC[C@H]5[C@](C)(C(=O)O)[C@@H](O)CC[C@]75C)c4cc3CC[C@@H]12 (stereo in doubt; 67),MIC,Staphylococcus aureus [6],16 µg/mL
same,MIC,Bacillus thuringiensis,8 µg/mL
same,MIC,Bacillus subtilis [7],16 µg/mL
same,MIC,Escherichia coli,8 µg/mL
COC1=C(N)C(=O)c2nc(-c3nc(C(=O)O)c(C)c(-c4ccc(OC)c(OC)c4O)c3N)ccc2C1=O [STREPTONIGRIN],Activity,[8],2.82
CN(C)[C@@H]1C(O)=C(C(N)=O)C(=O)[C@@]2(O)C(O)=C3C(=O)c4c(O)cccc4[C@@](C)(O)[C@H]3[C@H](O)[C@@H]12 [OXYTETRACYCLINE],MIC,Streptococcus iniae [5],40 µg/mL
COC(=O)c1cc(-c2ccc(F)cc2)n(-n2c(C(=O)OC)cc3ccccc32)c1C,IC50,[2],18.7 µg/mL
c1ccc(C(OCCN2CCCCC2)c2ccccc2)cc1 [PERASTINE],IC50,HGC-27,14.4 µM
COC(=O)c1cc(-c2cccc(OC)c2)n(-n2c(-c3ccc4ccccc4c3)cc(C(=O)OC)c2C)c1C,IC50,[2],18.7 µg/mL
C[C@@]1(C(=O)O)[C@@H](O)CC[C@]2(C)c3cc4c5ccccc5n(-n5c6ccccc6c6cc7c(cc65)CC[C@H]5[C@](C)(C(=O)O)[C@@H](O)CC[C@]75C)c4cc3CC[C@@H]12 (stereo in doubt; 66),MIC,"Staphylococcus aureus [6]; Staphylococcus aureus, ATCC 29213, read-out: MIC",8 µg/mL
same,MIC,"Bacillus thuringiensis; Bacillus thuringiensis, SCSIO BT01, read-out: MIC",4 µg/mL
same,MIC,"Bacillus subtilis [7]; Bacillus subtilis, SCSIO BS01, read-out: MIC",16 µg/mL
same,MIC,"Escherichia coli; Escherichia coli, ATCC 25922, read-out: MIC",8 µg/mL
O=C(c1ccccc1O)c1[nH]c(Cl)c(Cl)c1-n1c(Cl)c(Cl)c(Br)c1C(=O)c1ccccc1O,MIC90,Staphylococcus aureus [1],1.1 µM
same,IC50,HCT-116,9 µM
COC(=O)[C@@]12Oc3cc(C)c(-c4c(C)cc5c(c4O)C(=O)C4C(O)=CC[C@@H](O)[C@]4(C(=O)OC)O5)c(O)c3C(=O)C1=C(O)CC[C@H]2O (stereo in doubt; 5),IC50,Bacillus subtilis [9],0.7 µM
same,IC50,Staphylococcus aureus [10],18 µM
COC(=O)[C@@]12Oc3cc(C)c(-c4c(C)cc5c(c4O)C(=O)C4C(O)=CC[C@@H](O)[C@]4(C(=O)OC)O5)c(O)c3C(=O)C1=C(O)CC[C@H]2O (stereo in doubt; 4),IC50,Bacillus subtilis [9],2.1 µM
same,IC50,Staphylococcus aureus [10],6 µM
COc1cc(C)c(-c2ccc(O)c3c2C[C@@H](C)N[C@@H]3C)c2cccc(O)c12 [DIONCOPHYLLINE C],IC50,Plasmodium falciparum,0.014 µg/mL
same,IC50,Plasmodium berghei [11],0.015 µg/mL

# From ChEMBL document CHEMBL5331048, “Recent progress toward developing axial chirality bioactive compounds” (Eur J Med Chem, 2022)
